Experimental data taken from the NIST ThermoML archive (doi:10.1021/acs.jced.5b00367).
± gives the expanded uncertainty stated by the source.

Assay: mn = molality of the nth substance listed, in mol/kg
Settings: 303.15 K, 100 kPa, Liquid, Alternating current cell with electrodes

| Compound | electrical conductivity (m1 = 0.001) [S/m] | electrical conductivity (m1 = 0.005) [S/m] | electrical conductivity (m1 = 0.01) [S/m] | electrical conductivity (m1 = 0.015) [S/m] | electrical conductivity (m1 = 0.0005) [S/m] | electrical conductivity (m1 = 0.002) [S/m] | electrical conductivity (m1 = 1e-05) [S/m] | electrical conductivity (m1 = 3e-05) [S/m] | electrical conductivity (m1 = 4e-05) [S/m] | electrical conductivity (m1 = 5e-05) [S/m] | electrical conductivity (m1 = 6e-05) [S/m] | electrical conductivity (m1 = 0.0001) [S/m] | further results |
| --- | --- | --- | --- | --- | --- | --- | --- | --- | --- | --- | --- | --- | --- |
| CCCCCCCCCCCC[N+](C)(C)C.[Br-] [dodecyltrimethylammonium bromide] + O | 0.014 ± 0.0056 | 0.055 ± 0.022 | 0.1 ± 0.04 | 0.15 ± 0.06 |  |  |  |  |  |  |  |  | electrical conductivity (m1 = 0.012): 0.12 ± 0.048 S/m; electrical conductivity (m1 = 0.0181): 0.165 ± 0.066 S/m; electrical conductivity (m1 = 0.0201): 0.165 ± 0.066 S/m; electrical conductivity (m1 = 0.0252): 0.18 ± 0.072 S/m; electrical conductivity (m1 = 0.0302): 0.195 ± 0.078 S/m; electrical conductivity (m1 = 0.0402): 0.23 ± 0.092 S/m; electrical conductivity (m1 = 0.0502): 0.26 ± 0.1 S/m |
| CCCCCCCCCCCCCCCC[N+](C)(C)C.[Br-] [N,N,N-trimethyl-1-hexadecanaminium bromide] + O | 0.011 ± 0.0044 |  |  |  | 0.0061 ± 0.0024 | 0.0145 ± 0.0058 |  |  |  |  |  |  | electrical conductivity (m1 = 0.0002): 0.0028 ± 0.0011 S/m; electrical conductivity (m1 = 0.0008): 0.0092 ± 0.0037 S/m; electrical conductivity (m1 = 0.00085): 0.01 ± 0.004 S/m; electrical conductivity (m1 = 0.0009): 0.0103 ± 0.0041 S/m; electrical conductivity (m1 = 0.0012): 0.012 ± 0.0048 S/m; electrical conductivity (m1 = 0.0014): 0.0128 ± 0.0051 S/m; electrical conductivity (m1 = 0.0016): 0.0135 ± 0.0054 S/m |
| CCCCCCCCCC[N+](CC)(CC)CCCCCCCCCC.[Br-] [didecyldiethylammonium bromide] + O | 0.0092 ± 0.0037 | 0.0106 ± 0.0042 | 0.0132 ± 0.0053 | 0.016 ± 0.0064 | 0.0048 ± 0.0019 |  | 0.00039 ± 0.00019 | 0.00072 ± 0.0003 | 0.00143 ± 0.00058 | 0.00224 ± 0.0009 | 0.00293 ± 0.0012 | 0.0034 ± 0.0014 | electrical conductivity (m1 = 2e-05): 0.0006 ± 0.00025 S/m; electrical conductivity (m1 = 0.02): 0.0182 ± 0.0073 S/m |
| CCCCCCCCCCCC[N+](CC)(CC)CCCCCCCCCCCC.[Br-] [didodecyldiethylammonium bromide] + O | 0.00678 ± 0.0027 |  |  |  | 0.00484 ± 0.0019 | 0.00928 ± 0.0037 |  | 0.00146 ± 0.00059 | 0.00189 ± 0.00076 | 0.0025 ± 0.001 | 0.0032 ± 0.0013 | 0.00362 ± 0.0014 | electrical conductivity (m1 = 0.003): 0.0121 ± 0.0049 S/m |
| CCCCCCCCCCCCCCCC[N+](CC)(CC)CCCCCCCCCCCCCCCC.[Br-] [diethyldihexadecylammonium bromide] + O |  |  |  |  |  |  | 0.00081 ± 0.00035 | 0.00114 ± 0.00046 | 0.00124 ± 0.0005 | 0.00132 ± 0.00053 | 0.00136 ± 0.00054 |  | electrical conductivity (m1 = 5e-06): 0.00045 ± 0.00023 S/m; electrical conductivity (m1 = 1.5e-05): 0.00106 ± 0.00042 S/m |
